Some results are limits rather than exact numbers.

In the first assay the target is SARS-CoV-2 3CL-protease (Severe acute respiratory syndrome coronavirus 2, UniProt P0DTD1). The experiment in a line: SARS-CoV-2 3C-like (3CL) protease fluorescence assay (FRET). The format is biochemical.
Details: not given
A word on the IC50: it is the concentration that inhibits the measured activity by half. Consider `CCOC(=O)N1C[C@]2(C[C@H]1C#N)C(=O)Nc1ccccc12` [Example 67], for which the half-inhibitory concentration (IC50) was above 1000 nM. On the same count and under the same terms, next, `N#C[C@@H]1C[C@@]2(CN1C(=O)Oc1ccccc1)C(=O)Nc1ccccc12` [Example 71]: above 1000 nM.

The assay is the same for the next values; noted with them: recombinant SARS-CoV-2 3CL-protease 10 nM, 30 min preincubation at RT, duplicate; read-out: FRET IC50.
Consider `N#C[C@@H]1C[C@@]2(CN1C(=O)c1cc3ccccc3[nH]1)C(=O)Nc1ccccc12` [Example 54], for which the half-maximal inhibitory concentration (IC50) is above 1000 nM.

Turning to `N#C[C@@H]1C[C@@]2(CN1S(=O)(=O)c1ccccc1)C(=O)Nc1ccccc12` [Example 55], the 50% inhibitory concentration (IC50) was above 1000 nM.

Consider `N#C[C@@H]1C[C@@]2(CN1S(=O)(=O)c1ccc(F)cc1)C(=O)Nc1ccccc12` [Example 56], for which the IC50 was above 1000 nM. In the case of `CC(C)NS(=O)(=O)N1C[C@]2(C[C@H]1C#N)C(=O)Nc1ccccc12` [Example 57], the half-inhibitory concentration (IC50) is above 1000 nM. The same measure, in the same setting: then `N#C[C@@H]1C[C@@]2(CN1S(=O)(=O)NC1CC1)C(=O)Nc1ccccc12` [Example 58], with above 1000 nM. As to `N#C[C@@H]1C[C@@]2(CN1S(=O)(=O)NC1CCC1)C(=O)Nc1ccccc12` [Example 59], the IC50 is above 1000 nM.

In the case of `N#C[C@@H]1C[C@@]2(CN1S(=O)(=O)NC1CCCC1)C(=O)Nc1ccccc12` [Example 60], the IC50 was above 1000 nM. Same read-out and setting: next, `N#C[C@@H]1C[C@@]2(CN1S(=O)(=O)NC1CCCCC1)C(=O)Nc1ccccc12` [Example 61]: above 1000 nM; `N#C[C@@H]1C[C@@]2(CN1S(=O)(=O)Nc1ccc(F)cc1)C(=O)Nc1ccccc12` [Example 62]: above 1000 nM; `N#C[C@@H]1C[C@@]2(CN1S(=O)(=O)NCc1nccs1)C(=O)Nc1ccccc12` [Example 63]: above 1000 nM. Still for that read-out and setting: then `CC(C)CN1C[C@]2(C[C@H]1C#N)C(=O)Nc1ccccc12` [Example 64], with above 1000 nM; and `CC(C)CN1C[C@]2(C[C@@H]1C#N)C(=O)Nc1ccccc12` [Example 65], with above 1000 nM.

Turning to `N#C[C@@H]1C[C@@]2(CN1CC1CC1)C(=O)Nc1ccccc12` [Example 66], the concentration for half-maximal inhibition (IC50) is above 1000 nM. The same measure, in the same setting: next, `CC(C)OC(=O)N1C[C@]2(C[C@H]1C#N)C(=O)Nc1ccccc12` [Example 68]: above 1000 nM; `N#C[C@@H]1C[C@@]2(CN1C(=O)OC1CC1)C(=O)Nc1ccccc12` [Example 69]: above 1000 nM. The same measure, in the same setting: then `N#C[C@@H]1C[C@@]2(CN1C(=O)OC1CCCC1)C(=O)Nc1ccccc12` [Example 70], with above 1000 nM.

As to `N#C[C@@H]1C[C@@]2(CN1C(=O)OCc1ccccc1)C(=O)Nc1ccccc12` [Example 72], the IC50 was 100 to 1000 nM. On the same count and under the same terms, then `N#C[C@@H]1C[C@@]2(CN1C(=O)C(=O)Nc1ccccc1)C(=O)Nc1ccccc12` [Example 73], with above 1000 nM. Still for that read-out and setting: then `CC(C)(C(=O)NC1CCCCC1)C(=O)N1C[C@]2(C[C@H]1C#N)C(=O)Nc1ccccc12` [Example 74], with above 1000 nM; and `N#C[C@@H]1C[C@@]2(CN1C(=O)C1(C(=O)Nc3ccccc3)CC1)C(=O)Nc1ccccc12` [Example 75], with above 1000 nM. Same read-out and setting: next, `N#C[C@@H]1C[C@@]2(CN1S(=O)(=O)Nc1ccc3cccnc3c1)C(=O)Nc1ccccc12` [Example 76]: above 1000 nM.

With `N#C[C@@H]1C[C@@]2(CN1C(=O)OC1CCCCC1)C(=O)Nc1ccccc12` [Example 77], the IC50 was above 1000 nM. Still for that read-out and setting: next, `N#C[C@@H]1C[C@@]2(CN1C(=O)C(=O)NC1CC1)C(=O)Nc1ccccc12` [Example 78]: above 1000 nM; `N#C[C@@H]1C[C@@]2(CN1C(=O)C(=O)NC1CCCCC1)C(=O)Nc1ccccc12` [Example 79]: 100 to 1000 nM. Same read-out and setting: then `N#C[C@@H]1C[C@@]2(CN1C(=O)C(=O)NCc1ccccc1)C(=O)Nc1ccccc12` [Example 80], with 100 to 1000 nM; and `N#C[C@@H]1C[C@@]2(CN1C(=O)C(=O)NCc1nccs1)C(=O)Nc1ccccc12` [Example 81], with above 1000 nM.

Turning to `CC(C)NC(=O)C(C)(C)C(=O)N1C[C@]2(C[C@H]1C#N)C(=O)Nc1ccccc12` [Example 82], the IC50 is above 1000 nM. On the same count and under the same terms, next, `CC(C)(C(=O)NC1CC1)C(=O)N1C[C@]2(C[C@H]1C#N)C(=O)Nc1ccccc12` [Example 83]: above 1000 nM; `CC(C)(C(=O)Nc1ccccc1)C(=O)N1C[C@]2(C[C@H]1C#N)C(=O)Nc1ccccc12` [Example 84]: above 1000 nM; `N#C[C@@H]1C[C@@]2(CN1S(=O)(=O)Nc1ccccc1)C(=O)Nc1ccccc12` [Example 85]: above 1000 nM. Still for that read-out and setting: then `N#C[C@@H]1C[C@@]2(CN1C(=O)OCc1nccs1)C(=O)Nc1ccccc12` [Example 86], with above 1000 nM. On the same count and under the same terms, next, `N#C[C@@H]1C[C@@]2(CN1C(=O)OCn1cccn1)C(=O)Nc1ccccc12` [Example 87]: above 1000 nM. Regarding `CCNC(=O)C(=O)N1C[C@]2(C[C@H]1C#N)C(=O)Nc1ccccc12` [Example 88], the IC50 is above 1000 nM. Still for that read-out and setting: next, `CC(C)NC(=O)C(=O)N1C[C@]2(C[C@H]1C#N)C(=O)Nc1ccccc12` [Example 89]: above 1000 nM; `N#C[C@@H]1C[C@@]2(CN1C(=O)C(=O)NC1CCCC1)C(=O)Nc1ccccc12` [Example 90]: 100 to 1000 nM. As for `N#C[C@@H]1C[C@@]2(CN1C(=O)C(=O)Nc1ccc3cccnc3c1)C(=O)Nc1ccccc12` [Example 91], the IC50 was above 1000 nM. Same read-out and setting: next, `N#C[C@@H]1C[C@@]2(CN1C(=O)C(Cc1ccccc1)C(=O)C1CC1)C(=O)Nc1ccccc12` (stereo partly shown) [Example 92]: 100 to 1000 nM; `N#C[C@@H]1C[C@@]2(CN1C(=O)C(Cc1ccccc1)C(=O)C1CCCCC1)C(=O)Nc1ccccc12` (stereo partly shown) [Example 93]: above 1000 nM.

On to `N#C[C@@H]1C[C@@]2(CN1C(=O)[C@H](Cc1ccccc1)C(=O)c1ccccc1)C(=O)Nc1ccccc12` [Example 94], for which the IC50 is above 1000 nM.

Regarding `N#C[C@@H]1C[C@@]2(CN1C(=O)[C@@H](Cc1ccccc1)C(=O)c1ccccc1)C(=O)Nc1ccccc12` [Example 95], the concentration for half-maximal inhibition (IC50) is above 1000 nM. As for `CC(C)(C(=O)C1CC1)C(=O)N1C[C@]2(C[C@H]1C#N)C(=O)Nc1ccccc12` [Example 100], the concentration for half-maximal inhibition (IC50) was above 1000 nM. Same read-out and setting: next, `CC(C)(C(=O)C1CCCCC1)C(=O)N1C[C@]2(C[C@H]1C#N)C(=O)Nc1ccccc12` [Example 101]: above 1000 nM. Still for that read-out and setting: then `N#C[C@@H]1C[C@@]2(CN1C(=O)C1(C(=O)c3ccccc3)CC1)C(=O)Nc1ccccc12` [Example 102], with above 1000 nM; and `CC(C)(C(=O)c1ccccc1)C(=O)N1C[C@]2(C[C@H]1C#N)C(=O)Nc1ccccc12` [Example 111], with above 1000 nM. With `N#C[C@@H]1C[C@@]2(CN1C(=O)C(=O)OC1CCCC1)C(=O)Nc1ccccc12` [Example 112], the concentration for half-maximal inhibition (IC50) is above 1000 nM. The same measure, in the same setting: then `N#C[C@@H]1C[C@@]2(CN1C(=O)C(=O)OC1CCCCC1)C(=O)Nc1ccccc12` [Example 113], with 100 to 1000 nM. The same measure, in the same setting: then `CC(C)NC(=O)[C@@H](Cc1ccccc1)C(=O)N1C[C@]2(C[C@H]1C#N)C(=O)Nc1ccccc12` [Example 114], with 100 to 1000 nM; and `CC(C)NC(=O)[C@H](Cc1ccccc1)C(=O)N1C[C@]2(C[C@H]1C#N)C(=O)Nc1ccccc12` [Example 115], with above 1000 nM; and `N#C[C@@H]1C[C@@]2(CN1C(=O)[C@H](Cc1ccccc1)C(=O)NC1CC1)C(=O)Nc1ccccc12` [Example 116], with 100 to 1000 nM.

In the case of `N#C[C@@H]1C[C@@]2(CN1C(=O)[C@@H](Cc1ccccc1)C(=O)NC1CC1)C(=O)Nc1ccccc12` [Example 117], the IC50 was above 1000 nM.
